Measurements as given in US9675658B2, “Method of treating inflammation, allergy and asthma with a purified extract (ATC2) isolated from Pseudolysimachion rotundam var. subintegrum containing abundant amount of active ingredient” (YUNGJIN PHARMACEUTICAL CO., LTD, priority 2012, dated 2017).

How the values were obtained:
Type in all cases: in vivo, BALB/c mice
[1] = test system: OVA-sensitized/challenged mouse model; experiment: Preliminary determination of total serum IgE level in OVA-sensitized/challenged mouse model; conditions: 30 mg/kg PO 1 h prior to OVA inhalation
Experimental: In order to found the purified extract showing more pharmacologically potent activity than the crude extract prepared in comparative Example, following preliminary test was performed by the method disclosed in the literature (Elias, J. A. et al., J. Clin. Invest., 111, pp 297-297, 2003).
1-1. Animal Sensitization and Airway Challenge
(§1) Specific pathogen-free female BALB/c mice (about 20 g), aged 6 weeks, which were routinely screened serologically for relevant respiratory pathogens, were purchased from ORIENT Co. (Seoul, Korea) and acclimated with the experimental environment for 1 week.
(§2) Briefly, mice were sensitized by intraperitoneal injection of 20 μg OVA (Ovalbumin; A5503, Sigma, St. Louis, Mo.), which was emulsified in 2 mg aluminum hydroxide in 200 μl of PBS buffer (pH 7.4), biweekly. The mice were challenged through the airways with OVA (1% in PBS) for 30 min using an ultrasonic nebulizer (NE-U12; Omron Corp., Tokyo, Japan) from the 28th day to 34th day after the initial sensitization. 24 hrs after the antigen treatment, the airway hyperresponsiveness was determined and the mice were sacrificed 48 hrs after the last challenge. The mice were sacrificed with an overdose of pentobarbital (Entobal®, Hanrim Pharm. Co. Ltd.) 24 h after the last challenge, and a tracheotomy was performed. […]

[2] = test system: OVA-sensitized/challenged mouse model; experiment: Airway hyperresponsiveness test (Penh, whole body plethysmography, methacholine); conditions: 30 mg/kg PO
Experimental: In order to confirm the anti-asthmatic effect of test samples prepared in Examples using by airway hyperresponsiveness test in a OVA-sensitized/challenged mouse model, following test was performed by the method disclosed in the literature (Elias, J. A. et al., J. Clin. Invest., 111, pp 297-297, 2003).
as §1
as §2, with “performed. After […] of physiological saline solution (PBS) was instilled into the lungs, bronchoalveolar lavage fluid (BALF) was obtained by aspiration three times (total 1.5 ml) via tracheal cannulation.” for “performed.”
In order to evaluate the airway hyperresponsiveness of the mice, the airway resistance was determined using by apparatus (One chamber whole body plethymography, OCP3000, All Medicus, Seoul. Korea) and the determined value was statistically calculated by Pehn value (Enhance Pause) reflecting on the degree of airway obstruction. The Penh value was determined for 3 mins by the process of determining the basal value at the eupnea phase and determining the Penh value after inhaling PBS with Ultrasonic nebulizer (NE-U12, IMRON Corp., Tokyo, JAPAN) for 3 mins.
Thereafter, various concentrations of methacholine (A2251, Sigma, St. Louis, Mo.), 12, 25 and 50 mg/ml, were inhaled with increasing concentration to determine the Pehn values. The increase of Penh value was expressed as percentage (%) after the methacholine inhalation and the Penh value of basal line was set to 100%. […]

[3] = test system: OVA-sensitized/challenged mouse model; experiment: Level of eosinophil and inflammatory cells in BALF; conditions: 30 mg/kg PO
Experimental: In order to confirm the inhibition effect of test samples prepared in Examples on the level of eosinophil and inflammatory cells in bronchoalveolar fluid (BALF), following test was performed by the method disclosed in the literature (Chen M. et al., Immunolgy, pp 376-384, 2011).
The bronchoalveolar lavage fluid (BALF) prepared in Experimental Example 1 was recovered to determine the level of inflammatory cells.
The total inflammatory cell number was assessed by the counting of cells in at least five squares of a hemocytometer after excluding dead cells by staining with trypan blue (Daigle I. et al., Swiss Med Wkly, 131, pp 231-7, 2001). 100 μl of BALF was loaded onto a slide and centrifuged (200×g, 4° C., 10 min) to fix the cells onto the slide using a Cellspin machine (Cyto12.5+clip5, Hanil Science Industrial, Korea). The cells were stained by Diff-Quick® Stain reagents (Sysmex, Cat No. 38721, Switzerland) according to the manufacturer's instructions. Statistical significance was determined by Student's two-tailed t-test for independent means and the critical level for significance was set at P<0.05.

[4] = test system: OVA-sensitized/challenged mouse model; experiment: Level of IgE and OVA-specific IgE in blood serum (ELISA); conditions: 30 mg/kg PO
Experimental: In order to confirm the inhibition effect of test samples prepared in Examples on the level of IgE and OVA-specific IgE in blood serum, following test was performed by the method disclosed in the literature (Kay, A. B., The New England Journal of Medicine, 344, pp 30-37, 2001).
The blood serum and bronchoalveolar lavage fluid (BALF) prepared in Experimental Example 1 was recovered to determine the level of IgE and OVA-specific IgE in blood serum.
The blood serum and bronchoalveolar lavage fluid (BALF) was added to 96-well plates (ELISA plate) and coated with 0.1M NaHCO3 buffer solution (pH 8.3) containing 20 μg/mlof OVA (Sigma, Mo., USA) at 4° C. overnight. After inhibiting nonspecific reaction using by PBS containing 1% bovine serum albumin, the serum for testing was diluted to 1:400 and reacted together for 2 hours at room temperature. After washing, the serum was reacted with diluted (×300) anti-mouse IgE monoclonal antibody (MCA419, Serotec, Oxford, UK) for 2 hours and with diluted (×4000) HRP-conjugated goat anti-rat IgG polyclonal A (STAR110P, Serotec, UK) for 1 hours at room temperature. After washing, the solution was stained with 3,3′,5,5′-tetramethylbenzidine (52-00-02, KPL) substrate and the reaction was stopped by 2N H2SO4 to determine the absorbance using by spectroscopy (Versamax, Molecular Devices, US) at 450 nm.

[5] = test system: OVA-sensitized/challenged mouse model; experiment: Level of Th2 cytokines (IL-4, IL-5, IL-13) and IL-1β in BALF (ELISA); conditions: 30 mg/kg PO
Experimental: In order to confirm the inhibition effect of test samples prepared in Examples on the level of Th2 cytokines (IL-4, IL-5 and IL-13) and IL-1β in bronchoalveolar lavage fluid (BALF), following test was performed by the sandwich enzyme immunosorbent assay method disclosed in the literature (Renz H. et al., J. Exp. Med., […], pp 1175-1180, 1993).
The blood serum and bronchoalveolar lavage fluid (BALF) was added to 96-well plates (ELISA plate) coated with cytokine antibody to induce antigen-antibody reaction for 2 hours at room temperature. The level of Th2 cytokines (IL-4, IL-5 and IL-13) and IL-1β in bronchoalveolar lavage fluid (BALF) was determined using by ELISA kit (Biosource Int. CA, USA) specifically reacting with each cytokine according to the manufacture's manual.

[6] = test system: OVA-sensitized/challenged mouse model; experiment: Lung histology, H&E inflammation score; conditions: lung tissue, score 0-3; 30 mg/kg PO
Experimental: In order to confirm the anti-asthmatic effect of test samples prepared in Examples, following histopathological analysis on broncho-alveolar tissue was performed by the method disclosed in the literature (Kwak Y G. et al., J. Clin. Invest., 111, pp 1083-1092, 2003).
The delivered lung tissues of BALB/c mice which had not perform broncho-alveolar lavage was fixed for 24 h in 10% neutral-buffered formalin. After being embedded in paraffin, then made into 4-μm thickness sections, the tissue was stained with H&E solution (hematoxylin; Sigma MHS-16 and eosin, Sigma HT110-I-32) and the inflammation score of five regions in each section chosen in a randomized manner, was determined. (Inflammation score 0: inflamed cells is not found in bronchial surrounding, Inflammation score 1: inflamed cells is sporadically found in bronchial surrounding, Inflammation score 2: thin inflamed cell layer is found in most of bronchial surrounding, Inflammation score 3: thick inflamed cell layer is found in most of bronchial surrounding).

[7] = test system: OVA-sensitized/challenged mouse model; experiment: Goblet cell plasia, PAS staining of lung tissue; conditions: ratio of goblet cell in bronchiolar epithelial cell; 30 mg/kg PO
Experimental: In order to confirm the anti-asthmatic effect of test samples prepared in Examples, following goblet cell plasia analysis on broncho-alveolar tissue was performed by the method disclosed in the literature (Lee K S. et al., FASEB J., 20, pp 455-465, 2006).
The delivered lung tissues of BALB/c mice which had not perform broncho-alveolar lavage was fixed for 24 h in 10% neutral-buffered formalin. After being embedded in paraffin, then made into 4-μm thickness sections, the tissue was stained with Periodic acid Schiff (PAS stain kit, T-K7308, IMEB, CA, USA) to determine the ratio of goblet cell in bronchiolar epithelial cell

## CC(C)(O)c1ccccc1CC[C@@H](SCC1(CC(=O)O)CC1)c1cccc(/C=C/c2ccc3ccc(Cl)cc3n2)c1 [M30, Montelukast]
[1]
  total IgE in blood serum: 1.82 ± 0.4 µg/mL
[2]; methacholine 0 mg/Ml
  Penh Value: 0.49 ± 0.04
[2]; methacholine 12.5 mg/Ml
  Penh Value: 1.54 ± 0.20
[2]; methacholine 25 mg/Ml
  Penh Value: 1.98 ± 0.37
[2]; methacholine 50 mg/Ml
  Penh Value: 2.51 ± 0.36
[3]
  No. of eosinolphil: 52.03 ± 4.06 10^3 cells/mouse
  No. of inflammatory cells: 106.67 ± 6.48 10^3 cells/mouse
[4]
  level of IgE in serum: 4.76 ± 0.73 µg/mL
[4]; blood serum
  level of OVA-specific IgE: 0.09 ± 0.02 µg/mL
[5]
  IL-1β level: 187.03 ± 47.17 pg/mL
  IL-4 level: 32.60 ± 4.53 pg/mL
  IL-5 level: 69.74 ± 7.17 pg/mL
  IL-13 level: 25.93 ± 4.13 pg/mL
[6]
  Inflammation score: 1.25 ± 0.13
[7]
  PAS + cells/bronchiole: 39.21 ± 2.34%
